Laboratory results published in patent US10052320B2, “Substituted quinoxalines as FGFR kinase inhibitors” (ASTEX THERAPEUTICS LIMITED, priority 2011, dated 2018).
“And” between values parts separate entries of the source, which are not always exact repeats. Identical values can stand only once. Like-named read-outs stand apart in the source and are kept apart here.

Key:
[1] = tested on: Ba/F3-Flt3-transfected cells in the presence of 10 ng/ml murine IL3; assay: Ba/F3-Flt3 (plus IL3) cellular proliferation counterscreen, Alamar Blue; assay type: cell-based; settings: Mus musculus, read-out: BAF3-FLT3 (PLUS IL3) 384 well pIC50 (converted)
[2] = target: Ba/F3-FGFR1-transfected cells (Homo sapiens, UniProt P11362); assay: Ba/F3-FGFR1 (minus IL3) cellular proliferation assay, Alamar Blue; assay type: cell-based; settings: for BAF3-FGFR 1 (MIN IL3) 384 well pIC50: minus IL3, 384 well; for BAF3-FGFR 1 (MIN IL3) 96 well pIC50: minus IL3, 96 well
Outline: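 Compound dilutions in DMSO are combined with transfected cells in phenol red-free RPMI-1640 containing 10% FBS and L-glutamine. Plates incubate 24 h at 37 °C and 5% CO2. Viability is then scored by 4 h Alamar Blue conversion, read as fluorescence (540 nm excitation, 590 nm emission).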

[3] = target: FGFR1 (h) (Homo sapiens, UniProt P11362); assay: FGFR1 (enzymatic assay), TR-FRET; assay type: biochemical; settings: read-out: FGFR 1 pIC50 (converted)
Protocol: In a final reaction volume of 30 μL, FGFR1 (h) (25 ng/ml) was incubated with 50 mM HEPES pH 7.5, 6 mM MnCl2, 1 mM DTT, 0.1 mM Na3VO4, 0.01% Triton-X-100, 500 nM Btn-Flt3 and 5 μM ATP in the presence of compound (1% DMSO final). […] Time-Resolved Fluorescence Resonance Energy Transfer (TR-FRET) signal (ex340 nm. Em 620 nm, em 655 nm) was measured afterwards and results are expressed in RFU (Relative Fluorescence Units).

[4] = tested on: Ba/F3-KDR-transfected cells in the presence of 10 ng/ml murine IL3; assay: Ba/F3-KDR (plus IL3) cellular proliferation counterscreen, Alamar Blue; assay type: cell-based; settings: Mus musculus, plus 10 ng/ml murine IL3
Outline: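 Compound in DMSO was combined with Ba/F3-KDR-transfected cells in RPMI-1640, 10% FBS, 2 mM L-glutamine. After 24 h incubation at 37 °C, Alamar Blue was added for a further 4 h, then relative fluorescence units were measured.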

[5] = tested on: Ba/F3-Flt3-transfected cells in the presence of 10 ng/ml murine IL3; assay: Ba/F3-Flt3 (plus IL3) cellular proliferation counterscreen, Alamar Blue; assay type: cell-based; settings: Mus musculus, read-out: BAF3-FLT3 (PLUS IL3) 96 well pIC50 (converted)
[6] = read-out: BAF3-KDR (PLUS IL3) 384 well pIC50 (converted)

Ba/F3-FGFR1-transfected cells, sequence (P11362 whole entry, change not shown): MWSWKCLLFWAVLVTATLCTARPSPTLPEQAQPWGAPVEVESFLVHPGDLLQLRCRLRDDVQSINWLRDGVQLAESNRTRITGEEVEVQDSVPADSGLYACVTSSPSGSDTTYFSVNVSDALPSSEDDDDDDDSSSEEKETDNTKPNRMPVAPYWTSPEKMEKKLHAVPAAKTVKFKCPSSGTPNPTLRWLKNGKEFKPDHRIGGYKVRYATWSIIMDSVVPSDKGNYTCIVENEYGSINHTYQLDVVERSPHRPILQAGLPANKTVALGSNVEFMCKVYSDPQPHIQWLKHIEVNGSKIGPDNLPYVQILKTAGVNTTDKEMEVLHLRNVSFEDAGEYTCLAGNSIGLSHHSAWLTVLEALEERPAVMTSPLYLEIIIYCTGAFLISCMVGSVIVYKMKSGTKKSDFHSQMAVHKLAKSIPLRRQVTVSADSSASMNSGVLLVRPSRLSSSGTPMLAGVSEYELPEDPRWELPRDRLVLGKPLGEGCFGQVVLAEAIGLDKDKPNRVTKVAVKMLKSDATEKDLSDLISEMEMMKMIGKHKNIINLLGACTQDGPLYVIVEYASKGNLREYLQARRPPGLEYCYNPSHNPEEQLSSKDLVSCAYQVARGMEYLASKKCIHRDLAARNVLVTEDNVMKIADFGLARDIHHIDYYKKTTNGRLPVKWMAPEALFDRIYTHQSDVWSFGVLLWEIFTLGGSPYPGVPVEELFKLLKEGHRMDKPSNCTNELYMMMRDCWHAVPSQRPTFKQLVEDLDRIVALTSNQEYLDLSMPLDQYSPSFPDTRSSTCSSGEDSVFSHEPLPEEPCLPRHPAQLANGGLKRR
FGFR1 (h), sequence (P11362 22-822): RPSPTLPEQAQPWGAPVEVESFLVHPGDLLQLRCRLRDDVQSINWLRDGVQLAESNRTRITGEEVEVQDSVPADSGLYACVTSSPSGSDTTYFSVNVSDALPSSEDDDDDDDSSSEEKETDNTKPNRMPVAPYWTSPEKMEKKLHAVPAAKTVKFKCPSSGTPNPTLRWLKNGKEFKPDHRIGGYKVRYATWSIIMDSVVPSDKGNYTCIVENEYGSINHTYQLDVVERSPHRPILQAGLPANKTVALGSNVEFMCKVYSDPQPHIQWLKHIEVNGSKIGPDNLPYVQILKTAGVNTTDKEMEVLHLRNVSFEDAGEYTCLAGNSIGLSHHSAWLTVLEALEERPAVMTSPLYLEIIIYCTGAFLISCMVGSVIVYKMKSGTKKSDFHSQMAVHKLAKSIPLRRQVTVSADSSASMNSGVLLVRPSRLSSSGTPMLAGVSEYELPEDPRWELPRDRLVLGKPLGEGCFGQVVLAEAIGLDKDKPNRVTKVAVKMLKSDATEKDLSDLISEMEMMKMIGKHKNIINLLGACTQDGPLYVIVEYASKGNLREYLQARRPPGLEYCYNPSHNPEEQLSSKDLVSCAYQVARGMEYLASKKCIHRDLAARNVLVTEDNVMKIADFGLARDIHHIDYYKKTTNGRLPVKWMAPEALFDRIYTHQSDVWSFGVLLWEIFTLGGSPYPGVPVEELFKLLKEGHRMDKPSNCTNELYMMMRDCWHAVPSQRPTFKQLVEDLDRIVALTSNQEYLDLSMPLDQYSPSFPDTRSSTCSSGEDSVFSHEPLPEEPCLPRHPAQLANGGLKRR

| Structure (SMILES) | IC50 ([1]; plus 10 ng/ml murine IL3) [µM] | BAF3-FGFR 1 (MIN IL3) 384 well pIC50 [2] | IC50 [3] [µM] | melting point | IC50 [4, 6] [µM] | IC50 ([5]; plus 10 ng/ml murine IL3) [µM] | IC50 ([1]; plus IL3, 384 well) [µM] | IC50 ([5]; plus IL3, 96 well) [µM] | BAF3-FGFR 1 (MIN IL3) 96 well pIC50 [2] | IC50 ([4]; read-out: BAF3-KDR (PLUS IL3) 96 well pIC50 (converted)) [µM] |
| --- | --- | --- | --- | --- | --- | --- | --- | --- | --- | --- |
| COc1cc(OC)cc(N(CCNC(C)C)c2ccc3ncc(-c4ccncc4)nc3c2)c1 [Compound 12] | > 10 | 7.27 | 0.00214 | 118 °C | > 10 |  |  |  |  |  |
| COc1cc(OC)cc(N(CC2CC2)c2ccc3ncc(-c4ccnn4C)nc3c2)c1 [Compound 18] | > 10 |  |  | 132 °C | > 10 | > 10 |  |  |  |  |
| COc1cc(OC)cc(N(CC2CC2)c2ccc3ncc(-c4ccc5c(ccn5C)c4)nc3c2)c1 [Compound 20] |  |  |  |  |  |  | > 10 | > 10 |  |  |
| COc1cc(OC)cc(N(CC2CC2)c2ccc3ncc(-c4cn(C)cn4)nc3c2)c1 [Compound 21] | > 10 |  |  | 136 °C |  | > 10 |  |  |  |  |
| COc1cc(OC)cc(N(CC2CC2)c2ccc3ncc(C#Cc4ccncc4)nc3c2)c1 [Compound 23] | > 10 | 5.09 | 0.501 | 60 °C |  | 5.62 |  |  | 5.41 |  |
| COc1cc(OC)cc(N(CC2CC2)c2ccc3ncc(-c4cn(CCN5CCOCC5)nn4)nc3c2)c1 [Compound 24] | > 10 | 5.39 | 0.0204 | 128 °C |  | > 10 |  |  | 5.42 |  |
| COc1cc(OC)cc(N(CC2CC2)c2ccc3ncc(-n4ccc(C)n4)nc3c2)c1 [Compound 31] | > 10 | <5 | 0.933 | 107 °C |  | > 10 |  |  | <5 |  |
| COc1cc(OC)cc(N(CC2CC2)c2ccc3ncc(-n4ccnc4C)nc3c2)c1 [Compound 32] | > 10 | <5 | 0.417 |  |  | > 10 |  |  | <5 |  |
| COc1cc(OC)cc(N(CC2CC2)c2ccc3ncc(-c4cc[nH]c4)nc3c2)c1 [Compound 36] | > 10 |  |  |  |  | > 10 |  |  |  |  |
| COc1cc(OC)cc(N(CC2CC2)c2ccc3ncc(-c4nnn[nH]4)nc3c2)c1 [Compound 41] | > 10 | <5 | 0.0575 | 216 °C |  | > 10 |  |  | <5 |  |
| COc1cc(OC)cc(N(CCCO)c2ccc3ncc(-c4ccc(N5CCNCC5)nc4)nc3c2)c1 [Compound 48] | 4.17 | 6.92 | 0.00245 | 184 °C | 5.25 |  |  |  |  |  |
| COc1cc(OC)cc(N(CC2CC2)c2ccc3ncc(-c4cnco4)nc3c2)c1 [Compound 55] | > 10 | <5 | 0.0372 | 152 °C |  | > 10 |  |  | 5.37 |  |
| COc1cc(OC)cc(N(CC2CC2)c2ccc3ncc(-c4ccn(CCO)c4)nc3c2)c1 [Compound 56] | > 10 |  |  | 143 °C | > 10 | > 10 |  |  |  | > 10 |
| COc1cc(OC)cc(N(CC2CC2)c2ccc3ncc(-c4ccn[nH]4)nc3c2)c1 [Compound 58] | 8.32 |  | 0.135 |  |  | > 10 |  |  | <5 |  |
| COc1cc(OC)cc(N(CC2CC2)c2ccc3ncc(-c4nccn4C)nc3c2)c1 [Compound 60] | > 10 | <5 | 0.575 | 175 °C |  | > 10 |  |  | <5 |  |
| COc1cc(OC)cc(N(CC2CC2)c2ccc3ncc(-n4nccc4C)nc3c2)c1 [Compound 62] | > 10 | <5 | > 1 | 139 °C |  | > 10 |  |  | <5 |  |
| CCOC(=O)c1ncn(-c2cnc3ccc(N(CC4CC4)c4cc(OC)cc(OC)c4)cc3n2)c1C [Compound 65] | > 10 | <5 | > 1 |  |  | > 10 |  |  | <5 |  |

| Structure (SMILES) | IC50 ([1]; plus 10 ng/ml murine IL3) [µM] | BAF3-FGFR 1 (MIN IL3) 384 well pIC50 [2] | IC50 [3] [µM] | melting point | IC50 [4, 6] [µM] | IC50 ([5]; plus 10 ng/ml murine IL3) [µM] | IC50 ([1]; plus IL3, 384 well) [µM] | IC50 ([5]; plus IL3, 96 well) [µM] | BAF3-FGFR 1 (MIN IL3) 96 well pIC50 [2] | IC50 ([4]; read-out: BAF3-KDR (PLUS IL3) 96 well pIC50 (converted)) [µM] |
| --- | --- | --- | --- | --- | --- | --- | --- | --- | --- | --- |
| COc1cc(OC)cc(N(CC2CC2)c2ccc3ncc(-c4cn[nH]n4)nc3c2)c1 [Compound 69] | > 10 | 5.01 | 0.0794 | 173 °C and 172 °C |  | > 10 |  |  | 5.22 |  |
| COc1cc(OC)cc(N(CC2CC2)c2ccc3ncc(-c4cnnn4C)nc3c2)c1 [Compound 72] | > 10 | 5.18 | 0.537 | 169 °C |  | > 10 |  |  | 5.23 |  |
| COc1cc(OC)cc(N(CC2CC2)c2ccc3ncc(-c4ccn(C)c4)nc3c2)c1 [Compound 73] | > 10 |  |  | 110 °C |  | > 10 |  |  |  |  |
| COc1cc(OC)cc(N(CC2CC2)c2ccc3ncc(-c4nnn(C)n4)nc3c2)c1 [Compound 82] |  | <5 | 0.309 | 143 °C |  | > 10 |  |  | 5.03 |  |
| COc1cc(OC)cc(N(CC2CC2)c2ccc3ncc(C(=O)NCCN4CCOCC4)nc3c2)c1 [Compound 96] |  | <5 | ~0.363 | 112 °C |  | > 10 |  |  |  |  |
| COc1cc(OC)cc(N(CC2CC2)c2ccc3ncc(-c4nccs4)nc3c2)c1 [Compound 97] |  | <5 | 0.575 | 148 °C |  | > 10 |  |  |  |  |
| COc1cc(OC)cc(N(CC2CC2)c2ccc3ncc(Nc4nccs4)nc3c2)c1 [Compound 98] |  | <5 | 0.437 | 213 °C |  | > 10 |  |  |  |  |
| COc1cc(OC)cc(N(CC2CC2)c2ccc3ncc(C(=O)NCc4ccc(F)cc4)nc3c2)c1 [Compound 101] |  | <5 | > 1 | 140 °C |  | > 10 |  |  | <5 |  |
| COc1cc(OC)cc(N(CC2CC2)c2ccc3ncc(Nc4nncs4)nc3c2)c1 [Compound 102] |  | <5 | > 1 | 260 °C |  | > 10 |  |  | <5 |  |
| COc1cc(OC)cc(N(CC2CC2)c2ccc3ncc(-c4cccn4C)nc3c2)c1 [Compound 103] |  | <5 | > 1 | 141 °C |  | > 10 |  |  | <5 |  |
| COc1cc(OC)cc(N(CC2CC2)c2ccc3ncc(-c4ocnc4C)nc3c2)c1 [Compound 104] | > 10 | <5 | 0.389 | 141 °C | > 10 |  |  |  |  |  |
| COc1cc(OC)cc(N(CCO)c2ccc3ncc(-c4ccc(OC)nc4)nc3c2)c1 [Compound 111] | > 10 | 5.65 | 0.0263 | 195 °C | > 10 |  |  |  |  |  |
| COc1cc(OC)cc(N(CCCO)c2ccc3ncc(-c4cccnc4)nc3c2)c1 [Compound 112] | > 10 | 6.11 | 0.0186 | 150 °C | > 10 |  |  |  |  |  |
| CNc1ccc(-c2cnc3ccc(N(CCCO)c4cc(OC)cc(OC)c4)cc3n2)cn1 [Compound 116] | > 10 | 5.9 | 0.00724 | 188 °C | > 10 |  |  |  |  |  |
| COc1cc(OC)cc(N(CCO)c2ccc3ncc(-c4ccnc(C(=O)NCCCN)c4)nc3c2)c1 [Compound 123] | > 10 | 5.22 | 0.0186 | 103 °C | > 10 |  |  |  |  |  |
| COc1cc(OC)cc(N(CCCO)c2ccc3ncc(-c4ccnc(NC(=O)OC(C)(C)C)c4)nc3c2)c1 [Compound 128] | > 10 | <5 | 0.182 | 213 °C | > 10 |  |  |  |  |  |
